Data as given in patent publication US10272124B2, “Use of helminthostachys, ugonins or flavone-based compounds for the treatment or prevention of metabolic diseases” (National Research Institute of Chinese Medicine, Ministry …, priority 2016, dated 2019).

Tested on: Akt
Assay: Akt kinase activity assay (GSK3-α phosphorylation, Western blotting)
Assay type: biochemical
Conditions: not given
Description: Akt kinase activity was determined by commercial Akt assay kit according to the manufacturer's directions. Phosphorylation states of GSK3-α were determined by Western blotting, so as to evaluate the effect of various ugonins on Akt activity.

SMILES	Akt activity
C=C1CCCC(C)(C)[C@H]1Cc1c(O)cc2oc(-c3ccc(O)c(O)c3)cc(=O)c2c1O [ugonin J, (R)-2-(3,4-dihydroxyphenyl)-6-((2,2-dimethyl-6-methylenecyclohexyl)methyl)-5,7-dihydroxy-4H-chromen-4-one]	promote Akt activity

Tested on: BRIN-BD11 cells
Assay: Glucose stimulated insulin secretion (HTRF insulin assay)
Assay type: cell-based, rat
Conditions: below the concentration of 20 μM; 16.7 mM glucose, 20 min
Description: The clonal rat pancreatic β-cell line (BRIN-BD11) was grown as a monolayer in culture dishes at 37° C. under 5% CO2/air with 90% humidity. Cells were maintained in RPMI 1640 medium containing 10% foetal bovine serum and 5% penicillin and streptomycin mixture.
BRIN-BD11 cells were plated on 24-well plates (0.5×10^5 cells/well) and incubated for 48 hours with media containing 5.6 mM glucose. Before performing acute insulin secretion test, cells were pre-incubated with 1.1 mM glucose in Krebs-Ringer Bicarbonate Buffer for 45 min at 37° C. Then, cells were challenged with vehicle (DMSO) or various ugonins in 16.7 mM glucose in Krebs-Ringer Bicarbonate Buffer for 20 min. The media were collected for insulin determination. Insulin concentrations were quantified by the Homogeneous Time-Resolved Fluorescence (HTRF) insulin assay and normalized to a million of total cell numbers.
Data were presented as mean±standard error of the mean. Statistical analyses were performed using GraphPad Prism (GraphPad, CA, USA). Single parameter-based comparisons were obtained from the unpaired student's t-test. P values less than 0.05 and 0.01 were considered to be significant.

SMILES	insulin secretion of BRIN-BD11 cells
CC1Oc2cc3oc(-c4ccc(O)c(O)c4)cc(=O)c3c(O)c2C1(C)C (stereo not shown) [ugonin T, 7-(3,4-dihydroxyphenyl)-4-hydroxy-2,3,3-trimethyl-2,3-dihydro-5H-furo[3,2-g]chromen-5-one]	significantly enhance
COc1c(-c2ccc(O)cc2)oc2c3c(cc(O)c2c1=O)OC(C)C3(C)C (stereo not shown) [ugonin C, 5-hydroxy-2-(4-hydroxyphenyl)-3-methoxy-8,9,9-trimethyl-8,9-dihydro-4H-furo[2,3-h]chromen-4-one]	significantly enhance
CC1=CCCC(C)(C)C1Cc1c(O)c(O)cc2oc3c(=O)c4c(O)cc(O)cc4oc3c12 (stereo not shown) [ugonin M, 1,3,7,8-tetrahydroxy-6-((2,6,6-trimethylcyclohex-2-en-1-yl)methyl)-11H-benzofuro[3,2-b]chromen-11-one]	significantly enhance
C=C1CCCC(C)(C)[C@H]1Cc1c(O)cc2oc(-c3ccc(O)c(O)c3)cc(=O)c2c1O [ugonin J, (R)-2-(3,4-dihydroxyphenyl)-6-((2,2-dimethyl-6-methylenecyclohexyl)methyl)-5,7-dihydroxy-4H-chromen-4-one]	significantly enhance
CC1Oc2cc(O)c3c(=O)c(O)c(-c4ccc(O)cc4)oc3c2C1(C)C (stereo not shown) [ugonin F, 3,5-dihydroxy-2-(4-hydroxyphenyl)-8,9,9-trimethyl-8,9-dihydro-4H-furo[2,3-h]chromen-4-one]	significantly enhance
C=C1CCCC(C)(C)[C@H]1Cc1c(OC)cc2oc(-c3ccc(O)c(O)c3)cc(=O)c2c1O [ugonin K, (R)-2-(3,4-dihydroxyphenyl)-6-((2,2-dimethyl-6-methylenecyclohexyl)methyl)-5-hydroxy-7-methoxy-4H-chromen-4-one]	significantly enhance
